Series [1] deals with MCF-7 cell line. Kind of series: In vitro antiproliferative activity, MTT assay, MCF-7. It counts as cell-based. Particulars: Homo sapiens, MCF7, 48 h. How it is done: (§1) HCT116, MCF-7 and B16 cell lines were plated on 96-well plates at a density of 5000 per well and incubated overnight. […] After 48 h, 0.5% MTT (Amresco, Solon, OH, USA) solution was added to each well, and further incubation for 4 h, then cells were centrifuged at 2500 rpm for 15 min and removed from the culture medium. And add 150 μL DMSO to dissolve the formazan. After mixing for 5 min, optical density was detected at 570 nm on a microplate reader (Thermo, Waltham, MA, USA).

Series [2] has as its system B16 cell line. Kind of series: In vitro antiproliferative activity, MTT assay, B16. It counts as cell-based. Particulars: Mus musculus, 48 h. The method, then: as §1
A general note: Tetrazolium dyes change colour on reduction, which living cells bring about.

The test system of series [3] is HCT116 cell line. Description: In vitro antiproliferative activity, MTT assay, HCT116. The series is classed as cell-based. Particulars: Homo sapiens, HCT-116, 48 h. The method, then: as §1
The target of series [4] is EGFR (Homo sapiens, UniProt P00533). Kind of series: EGFR inhibitory assay (caliper mobility shift assay).
EGFR, sequence (P00533 25-1210): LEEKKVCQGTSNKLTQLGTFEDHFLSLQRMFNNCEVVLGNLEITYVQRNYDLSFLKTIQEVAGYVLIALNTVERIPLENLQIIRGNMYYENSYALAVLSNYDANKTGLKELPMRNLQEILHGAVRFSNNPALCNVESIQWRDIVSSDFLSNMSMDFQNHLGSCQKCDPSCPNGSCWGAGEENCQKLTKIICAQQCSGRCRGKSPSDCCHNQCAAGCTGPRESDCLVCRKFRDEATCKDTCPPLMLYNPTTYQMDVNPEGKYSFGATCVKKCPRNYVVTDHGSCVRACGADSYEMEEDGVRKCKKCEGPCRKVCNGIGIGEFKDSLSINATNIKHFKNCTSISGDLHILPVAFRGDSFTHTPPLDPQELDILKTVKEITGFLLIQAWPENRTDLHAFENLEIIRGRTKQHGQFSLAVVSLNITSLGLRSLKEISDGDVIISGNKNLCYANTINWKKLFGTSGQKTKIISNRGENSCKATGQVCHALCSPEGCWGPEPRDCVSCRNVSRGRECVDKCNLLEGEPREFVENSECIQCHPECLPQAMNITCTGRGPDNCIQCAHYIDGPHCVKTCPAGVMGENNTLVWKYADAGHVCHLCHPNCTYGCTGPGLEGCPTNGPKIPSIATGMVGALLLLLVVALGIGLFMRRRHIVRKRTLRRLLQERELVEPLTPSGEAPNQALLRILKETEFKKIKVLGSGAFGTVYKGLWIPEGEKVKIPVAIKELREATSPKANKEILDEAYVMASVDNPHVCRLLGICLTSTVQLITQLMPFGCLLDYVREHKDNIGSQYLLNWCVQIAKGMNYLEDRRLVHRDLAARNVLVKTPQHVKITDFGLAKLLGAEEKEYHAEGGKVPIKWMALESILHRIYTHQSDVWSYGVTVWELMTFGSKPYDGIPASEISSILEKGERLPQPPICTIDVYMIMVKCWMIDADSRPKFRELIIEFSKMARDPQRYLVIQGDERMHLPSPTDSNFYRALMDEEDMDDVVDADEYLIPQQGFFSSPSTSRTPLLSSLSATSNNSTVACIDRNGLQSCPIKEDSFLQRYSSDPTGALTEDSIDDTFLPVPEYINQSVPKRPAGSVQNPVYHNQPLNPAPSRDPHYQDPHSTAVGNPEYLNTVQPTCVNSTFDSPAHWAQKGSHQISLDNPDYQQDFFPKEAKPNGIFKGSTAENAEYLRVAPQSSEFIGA
Procedure: (§2) Each of these compounds was dissolved in DMSO at 10 mM, diluted to 50× of the final desired highest inhibitor concentration in reaction by 100% DMSO, and 100 μL of each dilution was added to one well on 96-well storage plate, and diluted by transferring 10 μL to 90 μL of 100% DMSO in the next well. Besides, 100 μL of 100% DMSO was added to two empty wells for no compound control and no enzyme control in the same 96-well plate respectively. The plate was marked as source plate. 10 μL of each compound was transferred from the source plate to a new 96-well plate, which was marked as the intermediate plate. Next, 90 μL of 1× kinase base buffer was added to each well of the intermediate plate, and mixed by shaking vigorously for 10 min. A total of 5 μL of each well from the 96-well intermediate plate was transferred to a 384-well plate in duplicate.
(§3) Kinase reaction: kinase in 1× kinase base buffer, FAM-labeled peptide and ATP in the 1× kinase base buffer were added, then 10 μL of 2.5× enzyme solution was added to each well of the 384-well assay plate. After incubating at room temperature for 10 min, 10 μL of 2.5× peptide solution was added to each well of the 384-well assay plate. […] Finally, the kinase reactions were quenched with 25 μL of EDTA and the plates were washed. The dates were collected and converted with the caliper program.
Series [5] has as its target VEGFR-2 (Homo sapiens, UniProt P35968). Description: VEGFR-2 inhibitory assay (caliper mobility shift assay).
Procedure: as §2, §3

The structures appear in SMILES notation.

The results in this text go back to paper PMC5943947 (Molecules : A Journal of Synthetic Chemistry and Natural …, 2017).

VEGFR-2, sequence (P35968 20-1356): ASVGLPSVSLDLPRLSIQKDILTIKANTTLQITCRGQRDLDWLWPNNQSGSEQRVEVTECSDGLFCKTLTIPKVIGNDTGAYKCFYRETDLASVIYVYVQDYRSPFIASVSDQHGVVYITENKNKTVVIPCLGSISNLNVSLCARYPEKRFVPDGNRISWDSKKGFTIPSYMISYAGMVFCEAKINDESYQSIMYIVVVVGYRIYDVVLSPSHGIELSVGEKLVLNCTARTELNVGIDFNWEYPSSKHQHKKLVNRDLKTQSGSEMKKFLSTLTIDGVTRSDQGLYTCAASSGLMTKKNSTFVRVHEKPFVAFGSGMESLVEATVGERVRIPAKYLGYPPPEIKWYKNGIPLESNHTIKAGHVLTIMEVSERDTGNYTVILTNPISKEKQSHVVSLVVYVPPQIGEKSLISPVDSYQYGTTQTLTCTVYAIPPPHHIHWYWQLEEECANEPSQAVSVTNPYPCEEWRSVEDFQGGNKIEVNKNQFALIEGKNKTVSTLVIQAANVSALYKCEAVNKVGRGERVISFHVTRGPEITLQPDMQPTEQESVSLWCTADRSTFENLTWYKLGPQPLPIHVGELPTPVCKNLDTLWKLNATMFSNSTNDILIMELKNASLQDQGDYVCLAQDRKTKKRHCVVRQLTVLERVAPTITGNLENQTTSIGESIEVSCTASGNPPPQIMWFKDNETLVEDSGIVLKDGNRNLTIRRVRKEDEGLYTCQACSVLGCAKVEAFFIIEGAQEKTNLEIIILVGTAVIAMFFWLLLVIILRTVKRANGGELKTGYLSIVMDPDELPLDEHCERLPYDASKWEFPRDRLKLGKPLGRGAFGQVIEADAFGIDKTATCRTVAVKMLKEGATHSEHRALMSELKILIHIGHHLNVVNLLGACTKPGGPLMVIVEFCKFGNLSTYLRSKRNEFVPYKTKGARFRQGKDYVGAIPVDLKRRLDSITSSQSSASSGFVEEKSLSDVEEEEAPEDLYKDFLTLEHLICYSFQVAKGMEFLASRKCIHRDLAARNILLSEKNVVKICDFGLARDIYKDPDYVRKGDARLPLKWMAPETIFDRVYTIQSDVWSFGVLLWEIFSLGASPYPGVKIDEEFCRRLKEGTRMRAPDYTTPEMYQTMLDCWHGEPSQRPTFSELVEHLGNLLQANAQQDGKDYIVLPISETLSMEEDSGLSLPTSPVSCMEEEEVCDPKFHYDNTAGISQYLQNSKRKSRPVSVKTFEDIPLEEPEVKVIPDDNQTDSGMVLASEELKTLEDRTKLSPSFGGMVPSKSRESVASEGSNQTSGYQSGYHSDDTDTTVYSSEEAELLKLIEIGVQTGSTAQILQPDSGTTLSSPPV

The IC50 is the concentration that inhibits the measured activity by half. As usually defined, the melting point is the temperature, or range, at which the solid turns liquid. The compound `COc1cc2ncnc(Oc3cccc(NC(=S)Nc4ccc(F)c(C(F)(F)F)c4)c3)c2cc1OC` [Compound 10a, 1-[3-(6,7-Dimethoxyquinazolin-4-yloxy)phenyl]-3-(4-fluoro-3-trifluoromethylphenyl)thiourea] showed a melting point of 130.5 to 133 °C. Also, the IC50 in series [1] turned out to be 38.1 µM. The compound further registered an IC50 in series [2] of 16.9 µM. This compound yielded an IC50 in series [3] of 37.4 µM. In addition, the IC50 in series [4] was found to be 0.04 µM. In addition, the IC50 in series [5] amounted to 0.19 µM.
For the compound `COc1cc2ncnc(Oc3cccc(NC(=S)Nc4ccc(Br)c(C(F)(F)F)c4)c3)c2cc1OC` [Compound 10c, 1-(4-Bromo-3-trifluoromethylphenyl)-3-[3-(6,7-dimethoxyquinazolin-4-yloxy)phenyl]thiourea], the IC50 is 22.4 µM in series [1]; 9.68 µM in series [2]; 10 µM in series [3]; 0.05 µM in series [4]; 0.18 µM in series [5].
The compound `COc1cc2ncnc(Oc3cccc(NC(=S)Nc4cc(C(F)(F)F)cc(C(F)(F)F)c4)c3)c2cc1OC` [Compound 10d, 1-(3,5-Ditrifluoromethylphenyl)-3-[3-(6,7-dimethoxyquinazolin-4-yloxy)phenyl]thiourea] registered a melting point of 122.8 to 125.6 °C. Also, the IC50 in series [1] came out at 18.8 µM. The compound also registered an IC50 in series [2] of 8.49 µM. Further, the IC50 in series [3] stood at 15 µM.
Turning to `COc1cc2ncnc(Oc3cccc(NC(=S)Nc4cccc(C(F)(F)F)c4)c3)c2cc1OC` [Compound 10e, 1-(3-Trifluoromethylphenyl)-3-[3-(6,7-dimethoxyquinazolin-4-yloxy)phenyl]thiourea], the melting point is 147.5 to 149.6 °C. The IC50 in series [1] was 13.3 µM. This compound also came in with an IC50 in series [2] of 14.8 µM. Half-maximal inhibition in series [3] (IC50) required 12.2 µM. Further, the IC50 in series [4] amounted to 0.14 µM. Also, in series [5], the IC50 worked out at 0.35 µM.
`COc1cc2ncnc(Oc3cccc(NC(=S)Nc4ccc(OC(F)(F)F)cc4)c3)c2cc1OC` [Compound 10f, 1-(4-Trifluoromethoxyphenyl)-3-[3-(6,7-dimethoxyquinazolin-4-yloxy)phenyl]thiourea] displayed a melting point of 171.5 to 174 °C. Also, in series [1], the IC50 was 18.8 µM. Besides, half-maximal inhibition in series [2] (IC50) required 54 µM. This compound also yielded an IC50 in series [3] of 58.6 µM. Besides, in series [4], the IC50 is above 10 µM. The IC50 in series [5] was above 10 µM.
On to `COc1cc2ncnc(Oc3cccc(NC(=S)Nc4ccc(Cl)cc4Cl)c3)c2cc1OC` [Compound 10g, 1-(2,4-Dichlorophenyl)-3-[3-(6,7-dimethoxyquinazolin-4-yloxy)phenyl]thiourea], for which the melting point was in the range of 187.4 to 188.2 °C. In series [1], this compound yielded an IC50 of 17.1 µM. In series [2], the midpoint of inhibition, the IC50, lay at 24.5 µM. The 50% inhibitory concentration (IC50) in series [3] is 19.8 µM. Further, the 50% inhibitory concentration (IC50) in series [4] came out at 7.71 µM. In addition, the IC50 in series [5] is above 10 µM.
The compound `COc1cc2ncnc(Oc3cccc(NC(=S)Nc4ccc(F)c(F)c4)c3)c2cc1OC` [Compound 10h, 1-(3,4-Difluorophenyl)-3-[3-(6,7-dimethoxyquinazolin-4-yloxy)phenyl]thiourea] yielded a melting point of 181.3 to 184.1 °C. Further, in series [1], the IC50 turned out to be 16 µM. For the same compound, the IC50 in series [2] was 19.4 µM. This compound also returned an IC50 in series [3] of 49.5 µM. Moreover, in series [4], the IC50 stood at 4.88 µM. For the same compound, the IC50 in series [5] is 7.06 µM.
`COc1cc2ncnc(Oc3cccc(NC(=S)Nc4ccc(Cl)cc4)c3)c2cc1OC` [Compound 10i, 1-(4-Chlorophenyl)-3-[3-(6,7-dimethoxyquinazolin-4-yloxy)phenyl]thiourea] gave a melting point of 198.3 to 201 °C. This compound also showed an IC50 in series [1] of 22.1 µM. In addition, in series [2], the IC50 amounted to 27.4 µM. This compound also had an IC50 in series [3] above 100 µM. The IC50 in series [4] turned out to be 4.17 µM. Besides, the IC50 in series [5] is above 10 µM.
In the case of `COc1cc2ncnc(Oc3cccc(NC(=S)Nc4ccc(F)cc4)c3)c2cc1OC` [Compound 10j, 1-(4-Fluorophenyl)-3-[3-(6,7-dimethoxyquinazolin-4-yloxy)phenyl]thiourea], the melting point lay in the range of 168.5 to 170 °C. In addition, the midpoint of inhibition in series [1], the IC50, lay at 23.6 µM. In addition, in series [2], half-maximal inhibition (IC50) was put at 34.1 µM. In series [3], this compound came in with an IC50 of 89.7 µM. In addition, the IC50 in series [4] was 5.9 µM. In addition, the IC50 in series [5] amounted to 7.11 µM.
As for `COc1cc2ncnc(Oc3cccc(NC(=S)Nc4ccc(C)cc4)c3)c2cc1OC` [Compound 10k, 1-p-tolyl-3-[3-(6,7-dimethoxyquinazolin-4-yloxy)phenyl]thiourea], the melting point is 138.4 to 140 °C. The IC50 in series [1] turned out to be 26.5 µM. In addition, the IC50 in series [2] is above 100 µM. For the same compound, in series [3], the half-inhibitory concentration (IC50) is above 100 µM. Further, the IC50 in series [4] was above 10 µM. Besides, the IC50 in series [5] was above 10 µM.
Compound `COc1cc2ncnc(Sc3cccc(NC(=S)Nc4ccc(F)c(C(F)(F)F)c4)c3)c2cc1OC` [Compound 10l, 1-[3-(6,7-Dimethoxyquinazolin-4-ylsulfanyl)phenyl]-3-(4-fluoro-3-trifluoromethylphenyl) thiourea] had a melting point of 128.4 to 130 °C. In addition, half-maximal inhibition in series [1] (IC50) required 25 µM. This compound also displayed an IC50 in series [2] of 9.33 µM. Moreover, the IC50 in series [3] came to 8.79 µM.
Consider `COc1cc2ncnc(Sc3cccc(NC(=S)Nc4ccc(OC(F)(F)F)cc4)c3)c2cc1OC` [Compound 10n, 1-(4-Trifluoromethoxyphenyl)-3-[3-(6,7-dimethoxyquinazolin-4-ylsulfanyl)phenyl]thiourea], for which the melting point lay within 138 to 139.3 °C. The compound also displayed an IC50 in series [1] of 32.4 µM. The compound also displayed an IC50 in series [2] of 68.4 µM. Also, 64.5 µM corresponded to half-maximal inhibition in series [3] (IC50). In addition, the IC50 in series [4] was above 10 µM. In addition, in series [5], the concentration for half-maximal inhibition (IC50) was above 10 µM.
Consider `COc1cc2ncnc(Sc3cccc(NC(=S)Nc4cc(C(F)(F)F)cc(C(F)(F)F)c4)c3)c2cc1OC` [Compound 10o, 1-(3,5-Ditrifluoromethylphenyl)-3-[3-(6,7-dimethoxyquinazolin-4-ylsulfanyl)phenyl]thiourea], for which the melting point was 168.2 to 171 °C. Also, half-maximal inhibition in series [1] (IC50) was put at 19 µM. Moreover, the IC50 in series [2] was determined as 12.2 µM. This compound also yielded an IC50 in series [3] of 9.57 µM. The IC50 in series [4] worked out at 0.02 µM. The IC50 in series [5] turned out to be 0.09 µM.
`COc1cc2ncnc(Sc3cccc(NC(=S)Nc4cccc(C(F)(F)F)c4)c3)c2cc1OC` [Compound 10p, 1-(3-Trifluoromethylphenyl)-3-[3-(6,7-dimethoxyquinazolin-4-ylsulfanyl)phenyl]thiourea] yielded a melting point of 127.5 to 131 °C. Moreover, in series [1], the IC50 amounted to 21 µM. The IC50 in series [2] was 12.9 µM. Further, inhibition in series [3] was half-maximal at 9.03 µM (IC50). The IC50 in series [4] amounted to 0.07 µM. Besides, in series [5], the IC50 was 0.27 µM.
As to `COc1cc2ncnc(Sc3cccc(NC(=S)Nc4ccc(Cl)cc4Cl)c3)c2cc1OC` [Compound 10r, 1-(2,4-Dichlorophenyl)-3-[3-(6,7-dimethoxyquinazolin-4-ylsulfanyl)phenyl]thiourea], the melting point is 172.4 to 174 °C. Further, inhibition in series [1] was half-maximal at 14.8 µM (IC50). The same compound had a half-maximal inhibitory concentration (IC50) in series [2] of 27.4 µM. Besides, the half-inhibitory concentration (IC50) in series [3] worked out at 63.1 µM. Besides, in series [4], the IC50 turned out to be 3.56 µM. Besides, the IC50 in series [5] was above 10 µM.
Turning to `COc1cc2ncnc(Sc3cccc(NC(=S)Nc4ccc(F)c(F)c4)c3)c2cc1OC` [Compound 10s, 1-(3,4-Difluorophenyl)-3-[3-(6,7-dimethoxyquinazolin-4-ylsulfanyl)phenyl]thiourea], the melting point fell in the range of 128.2 to 130.4 °C. Besides, in series [1], the IC50 turned out to be 30.5 µM. It took 42.2 µM to reach half-maximal inhibition in series [2] (IC50). This compound also displayed an IC50 in series [3] above 100 µM. Further, the IC50 in series [4] was determined as 3.17 µM. In addition, the IC50 in series [5] was 5.14 µM.
`COc1cc2ncnc(Sc3cccc(NC(=S)Nc4ccc(Cl)cc4)c3)c2cc1OC` [Compound 10t, 1-(4-Chlorophenyl)-3-[3-(6,7-dimethoxyquinazolin-4-ylsulfanyl)phenyl]thiourea] gave a melting point of 124.8 to 126.1 °C. In series [1], this compound displayed an IC50 of 26.4 µM. The compound further yielded a half-maximal inhibitory concentration (IC50) in series [2] of 57.6 µM. Further, the IC50 in series [3] came to 23.1 µM. In addition, in series [4], the IC50 was found to be 2.86 µM. Also, the IC50 in series [5] stood at 6.93 µM.
Take `COc1cc2ncnc(Sc3cccc(NC(=S)Nc4ccc(F)cc4)c3)c2cc1OC` [Compound 10u, 1-(4-Fluorophenyl)-3-[3-(6,7-dimethoxyquinazolin-4-ylsulfanyl)phenyl]thiourea]: the melting point was in the range of 152 to 153.2 °C. Besides, in series [1], half-maximal inhibition (IC50) was put at 21.3 µM. The compound also returned an IC50 in series [2] of 61.2 µM. The same compound registered an IC50 in series [3] of 27.3 µM. Moreover, in series [4], the IC50 was determined as 5.35 µM. Also, the IC50 in series [5] was 6.62 µM.
For `COc1cc2ncnc(Sc3cccc(NC(=S)Nc4ccc(C)cc4)c3)c2cc1OC` [Compound 10v, 1-p-tolyl-3-[3-(6,7-dimethoxyquinazolin-4-ylsulfanyl)phenyl]thiourea], the melting point lay within 163.1 to 165 °C. Moreover, in series [1], 28.9 µM corresponded to half-maximal inhibition (IC50). This compound also showed an IC50 in series [2] above 100 µM. This compound also gave an IC50 in series [3] of 83.2 µM. For the same compound, the IC50 in series [4] was above 10 µM. In addition, in series [5], the IC50 is above 10 µM.
